Measured values published in patent US20230126310A1 (priority 2020, published 2023).
Counter-ions that a name gives are not always drawn. Like-named read-outs stand apart in the source and are kept apart here.

Assays:
[1] = tested on: SARS-CoV-2 (BetaCov/Belgium/GHB-03021/2020); test: microbe, parasite or virus in culture; format: cell-based; conditions: for Emax / IC50: Severe acute respiratory syndrome coronavirus 2, 120 h; for Emax: read-out: Maximum confluence reached (%)
SARS-CoV-2 [2] = test: microbe, parasite or virus in culture; conditions: for inhibition at 10 µM: read-out: % Inh. (% Inhibition of SARS-CoV-2)
[3] = Compound cytotoxicity against CaCo-2 cells at 48 hours; format: cell-based, Human; conditions: human
Method: The cytotoxicity of the profiled compounds towards CaCo-2 cells at 48 hours was assessed. […] After 48 hours, cytotoxicity was evaluated using both digital phase contrast readout as described above and ATP determination (Cell titre-glo, Promega Corp).

SARS-CoV-2 [4] = conditions: for % Inh (% inhibition of virus infection): comparative experiments, Examples 1 and 2; for % Inh. (% Inhibition of SARS-CoV-2): 10 µM
[5] = Severe acute respiratory syndrome coronavirus 2, Caco-2, 48 h
[6] = comparative experiments, CaCo-2 cells, 48 hours
[7] = CaCo-2 cells, Table 5, further results of Examples 1 and 2, mean ± spread
[8] = Severe acute respiratory syndrome coronavirus 2, Caco-2, 48 h, read-out: pIC50 (converted)

| SMILES | inhibition at 10 µM (SARS-CoV-2 [2]; [5]) [%] | CC50 at 48 h [3, 7] [µM] | IC50 (SARS-CoV-2 [2]; [5]) [µM] | IC50 (SARS-CoV-2 [2]; [8]) [µM] | further results |
| --- | --- | --- | --- | --- | --- |
| Cc1ccc(NC(=O)c2ccc(CN3CCN(C)CC3)cc2)cc1Nc1nc(-c2cccnc2)cs1 [Masitinib (AB1010), Masitinib] | 108 |  |  |  | Emax [1]: 57.1% |
| CC(C)C(=O)OCC(=O)[C@@]12O[C@H](C3CCCCC3)O[C@@H]1C[C@H]1[C@@H]3CCC4=CC(=O)C=C[C@]4(C)[C@H]3[C@@H](O)C[C@@]12C [Ciclesonide] | 85.4 |  |  |  | IC50 [1]: 47 µM; Emax [1]: 35.2% |
| NS(=O)(=O)OC[C@@H]1C[C@@H](n2ccc3c(N[C@H]4CCc5ccccc54)ncnc32)C[C@@H]1O [Pevonedistat hydrochloride] |  |  |  |  | CC50 at 48 h [3, 6]: 222 ± 332 µM; % Inh (% inhibition of virus infection) (SARS-CoV-2 [4]): 75.1% |
| COc1cc2ncnc(Nc3cccc(Br)c3)c2cc1OC.Cl [PD153035 (Hydrochloride)] |  |  |  |  | % Inh. (% Inhibition of SARS-CoV-2) (SARS-CoV-2 [4]): 97.2%; Maximum confluence reached (%) [1]: 54.45% |
| Nc1nc2nc[nH]c2c(=S)[nH]1 [TIOGUANINE] |  |  |  |  | CC50 at 48 h [3, 6]: 2.21 ± 1.48 µM; % Inh (% inhibition of virus infection) (SARS-CoV-2 [4]): 99.9% |
| Cl.Nc1nc(NCC2CCC(CNS(=O)(=O)c3cccc4ccccc34)CC2)nc2ccccc12 (stereo not shown) [CGP-71683] |  |  |  |  | % Inh. (% Inhibition of SARS-CoV-2) (SARS-CoV-2 [4]): 102.5%; Maximum confluence reached (%) [1]: 39.25% |
| CCCCN(CCCC)CCC(O)c1cc2c(Cl)cc(Cl)cc2c2cc(C(F)(F)F)ccc12 (stereo not shown) [Halofantrine] | 91.4 |  |  |  | Emax [1]: 51.8% |
| CC[C@@H]([C@H](C)O)n1ncn(-c2ccc(N3CCN(c4ccc(OC[C@@H]5CO[C@@](Cn6cncn6)(c6ccc(F)cc6F)C5)cc4)CC3)cc2)c1=O [Posaconazole] |  | 14.6 ± 0.67 | 2.37 | 2.34 |  |
| CC[C@@H](C(=O)[C@@H](C)[C@@H](O)[C@H](C)[C@@H]1O[C@@H]([C@@H](CC)C(=O)O)CC[C@@H]1C)[C@H]1O[C@]2(C=C[C@@H](O)[C@]3(CC[C@@](C)([C@H]4CC[C@](O)(CC)[C@H](C)O4)O3)O2)[C@H](C)C[C@@H]1C [Salinomycin (Procoxacin), Salinomycin] | 90.2 |  |  |  | Emax [1]: 34.4% |
| N=C(N)c1ccc2cc(OC(=O)c3ccc(N=C(N)N)cc3)ccc2c1 [Nafamostat mesylate] |  |  |  |  | CC50 at 48 h [3, 6]: > 20 µM; % Inh (% inhibition of virus infection) (SARS-CoV-2 [4]): 89.8% |
| CN(C)C(=O)COC(=O)Cc1ccc(OC(=O)c2ccc(NC(=N)N)cc2)cc1 [Camostat Mesilate (FOY-305), Camostat Mesilate] |  |  |  |  | CC50 at 48 h [3, 6]: > 20 µM; % Inh (% inhibition of virus infection) (SARS-CoV-2 [4]): 86.9% |
| Cn1cc(-c2ccncc2)c(-c2ccc(OCc3ccc4ccccc4n3)cc2)n1 [PF-2545920] |  |  |  |  | % Inh. (% Inhibition of SARS-CoV-2) (SARS-CoV-2 [4]): 67.8%; Maximum confluence reached (%) [1]: 36.73% |
| Cc1cccc(C)c1NC(=O)CN1CCN(CCCC(c2ccc(F)cc2)c2ccc(F)cc2)CC1 [lidoflazine] | 95.9 | 31.9 ± 11 | 21.3 | 21.4 |  |
| CC(C)S(=O)(=O)NC[C@H](C)c1ccc(-c2ccc(CCNS(C)(=O)=O)cc2)cc1 [Mibampator] | 90.1 | 8.66 ± 1.75 | 2.23 | 2.24 |  |
| CO[C@H]1CC[C@H](N2C(=O)CNc3ncc(-c4ccc(C(C)(C)O)nc4)nc32)CC1 [CC-223] | 104 | 9.49 ± 2.55 | 23.6 | 23.4 |  |
| S=C(NCc1ccc2c(c1)OCO2)N1CCN(c2ncnc3c2oc2ccccc23)CC1 [Amuvatinib (MP-470), Amuvatinib] |  | 0.06 ± 0.01 |  | 0.0302 |  |
| Cc1cccc(C)c1OCC(=O)N[C@@H](Cc1ccccc1)[C@@H](O)C[C@H](Cc1ccccc1)NC(=O)[C@H](C(C)C)N1CCCNC1=O [Lopinavir (ABT-378), Lopinavir] | 56.6 | 2130 ± 3590 |  |  |  |
| C[C@@H](c1nc(-c2ccc(C#N)cc2)cs1)[C@](O)(Cn1cncn1)c1ccc(F)cc1F [ravuconazole] | 103 | 12.8 ± 0.84 | 2 | 2 |  |
| CC(C)c1cc(C(C)C)c(CC(=O)NS(=O)(=O)Oc2c(C(C)C)cccc2C(C)C)c(C(C)C)c1 [Avasimibe (CI-1011), Avasimibe] | 91.4 | 13.7 ± 6.18 | 10.9 | 11 |  |

| SMILES | inhibition at 10 µM (SARS-CoV-2 [2]; [5]) [%] | CC50 at 48 h [3, 7] [µM] | IC50 (SARS-CoV-2 [2]; [5]) [µM] | IC50 (SARS-CoV-2 [2]; [8]) [µM] | further results |
| --- | --- | --- | --- | --- | --- |
| CN1CC[C@H](c2c(O)cc(O)c3c(=O)cc(-c4ccccc4Cl)oc23)[C@H](O)C1 [alvocidib] | 87.8 | 0.06 |  |  |  |
| NC(=O)c1nnn(Cc2cc(Cl)c(C(=O)c3ccc(Cl)cc3)c(Cl)c2)c1N [carboxyamidotriazole] |  |  |  |  | CC50 at 48 h [3, 6]: 0.11 ± 0.04 µM; % Inh (% inhibition of virus infection) (SARS-CoV-2 [4]): 135.1% |
| C[C@@H]1C[C@@H]([C@H](O)CC2CC(=O)NC(=O)C2)C(=O)[C@@H](C)C1 [CYCLOHEXIMIDE] |  |  |  |  | Emax [1]: 63.7% |
| COC(=O)C[C@](O)(CCC(C)(C)O)C(=O)O[C@@H]1C(OC)=C[C@]23CCCN2CCc2cc4c(cc2[C@H]13)OCO4 [Harringtonine] | 93.6 |  | 23.7 | 23.4 | CC50 at 48 h ([3]; Table 5, further results of Examples 1 and 2, mean ± spread): 0.07 ± 0.06 µM; IC50 (SARS-CoV-2 [2]; Severe acute respiratory syndrome coronavirus 2, Caco-2, read-out: IC50: concentration of 50% inhibition of virus infection, Table 5, further results of Examples 1 and 2, […]): 19 µM; IC50 (SARS-CoV-2 [2]; Severe acute respiratory syndrome coronavirus 2, Caco-2, read-out: pIC50: -log10 of IC50, Table 5, further results of Examples 1 and 2 (converted)): 19.1 µM |
| Cc1cc(C)c(Nc2ccnc(Nc3ccc(C#N)cc3)n2)c(C)c1 [Dapivirine (TMC120), Dapivirine] | 108 | 5 ± 0.07 |  |  |  |
| Clc1ccc(Nc2nnc(Cc3ccncc3)c3ccccc23)cc1 [vatalanib] | 85.9 | 64.2 ± 57.4 | 24.4 | 24.5 |  |
| CNC(=O)c1cc(Oc2ccc(NC(=O)Nc3ccc(Cl)c(C(F)(F)F)c3)c(F)c2)ccn1 [Regorafenib (BAY 73-4506), Regorafenib] | 91.5 | 0.97 ± 0.6 |  |  |  |
| O=C(Nc1nc(-c2cc(Cl)cs2)c(N2CCN(C3CCCCC3)CC2)s1)c1cnc(N2CCC(C(=O)O)CC2)c(Cl)c1 [Avatrombopag] | 95.9 | 20.9 ± 29.5 | 7.17 | 7.24 |  |
| CNC(=O)c1ccc(C)c(-n2c(C)cc(OCc3ccc(F)cc3F)c(Br)c2=O)c1 [PH-797804] | 81.5 | 20 ± 3.1 | 20.7 | 20.4 |  |
| CC/C(=C(\c1ccc(O)cc1)c1ccc(OCCNC)cc1)c1ccccc1 [Endoxifen HCl] |  |  |  |  | IC50 [1]: 6.34 µM; Emax [1]: 35.7% |
| CCCCCCCCN=c1ccn(CCCCCCCCCCn2ccc(=NCCCCCCCC)cc2)cc1 [Octenidine Dihydrochloride] | 77 | 2.4 ± 0.09 | 1.14 | 1.15 |  |
| O=C(CCCN1CCC2(CC1)C(=O)N(Cc1cccc(F)c1)CN2c1ccccc1)c1ccc(F)cc1.O=C(O)/C=C\C(=O)O [3′-fluorobenzylspiperone] |  |  |  |  | Maximum confluence reached (%) [1]: 43.04% |
| CC(=O)[C@]1(O)Cc2c(O)c3c(c(O)c2[C@@H](O[C@H]2C[C@H](N)[C@H](O)[C@H](C)O2)C1)C(=O)c1ccccc1C3=O [Idarubicin HCl] | 86.6 |  | 25 | 25.1 | Emax [1]: 92.6% |
| Cc1cc(-c2ncc(CC(=O)Nc3ccc(-c4cnccn4)cn3)cc2C)ccn1 [LGK-974] | 105 | 7.61 ± 0.06 | 2.33 | 2.34 |  |
| O=C(O)Cc1cccc(OCCCN(Cc2cccc(C(F)(F)F)c2Cl)CC(c2ccccc2)c2ccccc2)c1 [GW-3965] | 91.4 |  |  |  | Emax [1]: 38% |
| CCOc1ccc(Cc2nccc3cc(OCC)c(OCC)cc23)cc1OCC [ETHAVERINE HYDROCHLORIDE] | 85 | 11 ± 1.07 | 0.54 | 0.537 |  |
| COC(=O)C[C@](O)(CCCC(C)(C)O)C(=O)O[C@@H]1C(OC)=C[C@]23CCCN2CCc2cc4c(cc2[C@H]13)OCO4 [homoharringtonine] | 154 | 1.72 ± 1.89 | 2.25 | 2.24 |  |
| Fc1ccc(-c2cncc(CN3CCN(c4cccc5c4OCCO5)CC3)c2)cc1 [Adoprazine] | 81.4 | 75.9 ± 54.2 | 23.4 | 23.4 |  |
